Laboratory results reported in the NIST ThermoML archive (doi:10.1016/j.jct.2008.10.002).
Numbers after ± are expanded uncertainties.

Key:
[1] = molar heat capacity at constant pressure; conditions: 101.33 kPa, Liquid, Small sample (50 mg) DSC
[2] = 101.33 kPa, Liquid, Vibrating tube method
[3] = excess molar enthalpy (molar enthalpy of mixing); xn = mol fraction of the nth substance listed; conditions: 303.15 K, 101.3 kPa, Liquid

SMILES | molar heat capacity at constant pressure ([1]; 293.15 K) [J/K/mol] | molar heat capacity at constant pressure ([1]; 298.15 K) [J/K/mol] | molar heat capacity at constant pressure ([1]; 303.15 K) [J/K/mol] | molar heat capacity at constant pressure ([1]; 308.15 K) [J/K/mol] | molar heat capacity at constant pressure ([1]; 313.15 K) [J/K/mol] | molar heat capacity at constant pressure ([1]; 318.15 K) [J/K/mol] | mass density ([2]; 293.15 K) [kg/m3] | mass density ([2]; 298.15 K) [kg/m3] | mass density ([2]; 303.15 K) [kg/m3] | mass density ([2]; 308.15 K) [kg/m3] | mass density ([2]; 313.15 K) [kg/m3] | mass density ([2]; 318.15 K) [kg/m3] | excess molar enthalpy ([3]; x1 = 0.1023) [kcal/mol] | excess molar enthalpy ([3]; x1 = 0.2013) [kcal/mol] | excess molar enthalpy ([3]; x1 = 0.3036) [kcal/mol] | excess molar enthalpy ([3]; x1 = 0.4004) [kcal/mol] | excess molar enthalpy ([3]; x1 = 0.4891) [kcal/mol] | excess molar enthalpy ([3]; x1 = 0.5761) [kcal/mol] | excess molar enthalpy ([3]; x1 = 0.6659) [kcal/mol] | excess molar enthalpy ([3]; x1 = 0.8154) [kcal/mol]
CCCCn1cc[n+](C)c1.COS(=O)(=O)[O-] [1-butyl-3-methylimidazolium methyl sulfate] | 413.7 ± 6.4 | 416.2 ± 6.4 | 418.5 ± 6.5 | 420.9 ± 6.5 | 423.3 ± 6.6 | 425.6 ± 6.6 | 1210.7 ± 0.4 | 1207.4 ± 0.4 | 1204.1 ± 0.4 | 1200.8 ± 0.4 | 1197.5 ± 0.4 | 1194.2 ± 0.4 |  |  |  |  |  |  |  | 
CCCCn1cc[n+](C)c1.O=S(=O)([O-])C(F)(F)F [1-butyl-3-methylimidazolium trifluoromethanesulfonate] | 421.6 ± 6.5 | 424.1 ± 6.6 | 426.7 ± 6.6 | 429.5 ± 6.7 | 432.4 ± 6.7 | 435.5 ± 6.7 | 1301.6 ± 0.5 | 1297.6 ± 0.5 | 1293.7 ± 0.5 | 1289.7 ± 0.5 | 1285.8 ± 0.5 | 1281.9 ± 0.5 |  |  |  |  |  |  |  | 
CCCC[n+]1cccc(C)c1.F[B-](F)(F)F [1-butyl-3-methylpyridinium tetrafluoroborate] + O |  |  |  |  |  |  |  |  |  |  |  |  | 0.261 ± 0.00574 | 0.421 ± 0.00884 | 0.514 ± 0.0108 | 0.554 ± 0.0115 | 0.543 ± 0.0112 | 0.497 ± 0.0105 | 0.428 ± 0.00908 | 0.256 ± 0.0055
CCOS(=O)(=O)[O-].CCn1cc[n+](C)c1 [1-ethyl-3-methylimidazolium ethyl sulfate] | 392.2 ± 6.1 | 394.4 ± 6.1 | 396.8 ± 6.1 | 399.3 ± 6.2 | 402 ± 6.2 | 404.9 ± 6.3 | 1240.6 ± 0.4 | 1237.2 ± 0.4 | 1233.8 ± 0.4 | 1230.4 ± 0.4 | 1227 ± 0.4 | 1223.7 ± 0.4 |  |  |  |  |  |  |  | 
CCn1cc[n+](C)c1.O=S(=O)([O-])C(F)(F)F [1-ethyl-3-methylimidazolium trifluoromethanesulfonate] | 361.1 ± 5.6 | 363.2 ± 5.6 | 365.3 ± 5.7 | 367.4 ± 5.7 | 369.6 ± 5.7 | 371.8 ± 5.8 | 1389.5 ± 0.6 | 1385.3 ± 0.6 | 1381.1 ± 0.6 | 1376.9 ± 0.6 | 1372.7 ± 0.6 | 1368.6 ± 0.6 |  |  |  |  |  |  |  | 
O [water] | 75.4 ± 1.2 | 75.3 ± 1.2 | 75.3 ± 1.2 | 75.2 ± 1.2 | 75.2 ± 1.2 | 75.3 ± 1.2 |  |  |  | 994.1 ± 0.3 |  |  |  |  |  |  |  |  |  | 
